Where two headings read alike, the source gives them in different places. Blank lines part the entries; values can stand above or below the compound they belong to.
Assays:
[1] = in vitro; conditions: PAMPA
[2] = system: HeLa cells; conditions: cancer cells in vitro; Alverez et al., 2020; cited from earlier work
[3] = biological target: PBD of Plk2 (Homo sapiens (Human), UniProt Q9NYY3); assay: Fluorescence polarization (FP)-based PBD inhibition assay, Plk2; assay type: binding
Protocol: (§1) FP assays were carried out essentially as described previously (Qian, ibid). […] All experiments were performed in triplicate for each sample.
(§2) PBD Fluorescence Polarization (FP) Binding Assays for Plk1 specificity. […] All experiments were performed in triplicate for each sample.

[4] = biological target: PBD of Plk3 (Homo sapiens (Human), UniProt Q9H4B4); assay: Fluorescence polarization (FP)-based PBD inhibition assay, Plk3; assay type: binding
Protocol: as §1, §2

[5] = Aqueous solubility; conditions: for Solub.: aqueous solubility
[6] = Microsomal metabolic stability, rat liver microsomes (RLM); conditions: rat liver microsomes
[7] = biological target: T1, PBD of Plk1 (Homo sapiens (Human), UniProt P53350); conditions: Gunasekaran et al., 2020; cited from earlier work
[8] = biological target: T1, PBD of Plk1; assay: Fluorescence polarization (FP)-based PBD inhibition assay, Plk1; assay type: binding
Protocol: as §1, §2

[9] = biological target: full-length human Plk1 (Homo sapiens (Human), UniProt P53350); assay: ELISA-based Plk1 PBD-binding inhibition assay; conditions: Plk1 PBD; n = 3 unless noted
Protocol: An ELISA-based PBD-binding inhibition assay was performed essentially as described previously. […] The wells were washed once with PBS+0.05% Tween20 (PBST) and incubated with 200 μl of PBS plus 1% BSA (blocking buffer) for 1 h to prevent non-specific binding. HEK293A lysates expressing HA-EGFP-Plk1 were prepared in a TBSN [20 mM Tris-HCl (pH 8.0), 150 mM NaCl, 0.5% NP-40, 5 mM EGTA, 2 mM MgCl2, 1.5 mM EDTA, and protease inhibitor cocktail (Roche)]+20% DMSO buffer (˜20 μg total lysates in 100 μl buffer), mixed with the indicated amount of the competitors (p-T78 peptide and its derivative compounds) for 30 min, provided onto the biotinylated peptide-coated ELISA wells, and then incubated with constant rocking for 1 h at 25° C. Following the incubation, ELISA plates were washed 5 times with PBST. To detect bound HA-EGFP-Plk1, the plates were probed for 2 h with 100 μl/well of anti-HA antibody at a concentration of 0.5 μg/ml in the blocking buffer and then washed 5 times. The plates were further probed for 1 h with 100 μl/well of HRP-conjugated secondary antibody (GE Healthcare) at a 1:1,000 dilution in the blocking buffer. The plates were washed 5 times with PBST and incubated with 100 μl/well of 3,3′,5,5′-tetramethylbenzidine solution (Sigma-Aldrich, St. Louis, MO) as substrate until a desired absorbance was reached. The reactions were stopped by the addition of 100 μl/well of stop solution (Cell Signaling Technology, Danvers, MA). The optical density (O.D.) was measured at 450 nm by using a Perkin-Elmer Enspire Multimode Plate reader (PerkinElmer, Inc., Boston, MA). Data obtained from more than three independent experiments were analyzed by GraphPad (San Diego, CA) Prism software version 7.
ELISA-based PBD-binding Inhibition Assay. […] The reaction products were measured at 450 nm by using a Perkin-Elmer Enspire Multimode Plate reader (PerkinElmer, Inc., Boston, MA). Data obtained from more than three independent experiments were analyzed by GraphPad (San Diego, CA) Prism software version 7.

[10] = system: Plk1 localization to centrosomes and kinetochores in HeLa cells; assay: Immunostaining of Plk1 localization and spindle morphology in HeLa cells; assay type: cell-based; conditions: 100 μM; for inhibition at 100 µM: Homo sapiens
Protocol: HeLa cells were cultured as recommended by the American Type Culture Collection (ATCC). Asynchronously growing cells were treated with control DMSO or the indicated concentration of 143. To reveal chromosome morphologies, cells were treated with 4′,6-diamidino-2-phenylindole (DAPI), fixed, and subjected to confocal microscopy. Immunostaining was carried out using anti-Plk1 (Santa Cruz Biotechnology, Santa Cruz, CA), anti-Cep63 (MilliporeSigma), anti-CREST (Antibodies Incorp, Davis, CA), and anti-α-tubulin (Sigma, St. Louis, MO) antibodies. Confocal images were acquired using a Zeiss LSM780 equipped with a plan-apochromat 63× (N.A. 1.4) oil-immersion objective lens, 34-channel GaAsP spectral detector (Carl Zeiss Microscopy, LLC.), and 8-bit, 0.5-μm z-steps.
To quantify fluorescence signal intensities, images were acquired under the same settings and the images obtained after the maximum-intensity projection of z-stacks were analyzed using the Zeiss ZEN v2.1 software (Carl Zeiss Microscopy, LLC). All the quantifications were performed with randomly chosen fields from at least three independent experiments. All values are given as mean±s. D. P values were calculated by unpaired t test from the mean data of each group in Graph Pad Prism (***P<0.001). The statistical details including the definitions and value of n (e.g., number of experimental replicates, cells, etc.) And standard deviations are provided herein.
To directly examine whether the observed mitotic arrest was the consequence of inhibiting Plk1 PBD function, immunostaining analysis was carried out to determine the ability of intracellular Plk1 to localize to centrosomes and kinetochores, an event that requires PBD-mediated protein-protein interaction (Lee et al., Trends Pharmacol. Sci. 36, 858-877 (2015); and Elia et al., Cell 115, 83-95 (2003)). […] A short treatment time (i.e., 2 h), which was intended to minimize a potential indirect effect of these inhibitors, was sufficient to delocalize greater than 70% of Plk1 signals from centrosomes (marked by anti-Cep63 signals) and 90% of those from kinetochores (marked by anti-CREST signals).

[11] = Stability in human liver microsomes; assay type: in vitro ADME; conditions: read-out: t1/2 Human LM
[12] = Stability in mouse liver microsomes; assay type: in vitro ADME; conditions: read-out: t1/2 Mouse LM
[13] = Stability in rat liver microsomes (Table 10); assay type: in vitro ADME; conditions: read-out: t1/2 Rat LM
[14] = Stability in human cytosol; assay type: in vitro ADME; conditions: read-out: t1/2 Human cytosol
[15] = Stability in mouse cytosol; assay type: in vitro ADME; conditions: read-out: t1/2 Mouse cytosol
[16] = Stability in rat cytosol; assay type: in vitro ADME; conditions: read-out: t1/2 Rat cytosol
[17] = In vitro stability in mice (mouse liver microsome assay); assay type: in vitro ADME; conditions: liver microsomes, pH 7.4, read-out: t1/2 in vitro
Protocol: The reaction was stopped by an aliquot of 200 μL of ice-cold acetonitrile after 60 min. After centrifugation at 14 000×g for 10 min, a 5 μL aliquot of the supernatant was injected into a UHPLC-[…]. […] A trace amount of the subsequent glucuronide of the demethylated metabolite was also seen in the serum, as it could be promptly excreted from the liver to the bile, once generated, and can then undergo enterohepatic circulation through which the demethylated product is reabsorbed to the circulation. This could also serve as an explanation for the increased demethylated metabolite at the last time point.

[18] = In vivo mouse pharmacokinetics, intraperitoneal; conditions: mice
Protocol: The National Cancer Institute Animal Care and Use Committee approved all animal experiments conducted in this study.
In the in vivo mouse pharmacokinetics study, 6-8-week-old male C57BL/6 mice were selected for metabolite profiling. In brief, 200 μL/20 g mice of WA (20 mg/kg dissolved in 5% DMSO and 5% Tween 80-contained saline) was administered intraperitoneally to mice. Control mice were treated with saline containing 5% DMSO and 5% Tween 80 alone. […] Blood samples were collected by retro-orbital bleeding at 4 h postdose. After centrifugation for 10 min at 14 000×g, serum was obtained and prepared by mixing 20 μL serum with 180 μL 50% aqueous acetonitrile. After centrifugation at 14 000×g for 20 min, a 5 μL aliquot of the supernatants was injected into a Waters UPLC-ESI-QTOFMS system (Waters Corporation, Milford, MA).

[19] = system: CYP3A; assay: Mouse liver microsome assay with CYP-specific inhibitors; assay type: in vitro ADME; conditions: mouse liver microsomes
Protocol: In Vitro MLM Assay. Incubations of the mouse liver microsome (MLM) samples were performed in duplicate. Reactions (200 μL final volume) were conducted in 50 mM potassium phosphate buffer, 3 mM MgCl2 (pH 7.4), 1 mg/mL MLM protein, and 2.5 μM test compound with or without 50 μM inhibitor. The mixture was preincubated at 37° C. for 3 min and initiated with 4 mM NADPH. At the serial time of the incubation, 20 μL of the mixture was added to ice-cold 80 μL of 90% acetonitrile including 4 μM of 4 followed by a 25 min incubation on ice and centrifugation at 14,000×g for 10 min. 40 μL of supernatant was diluted with 20 μL of water, and a 5 μL aliquot was injected into the UPLC-QTOF system.
To evaluate metabolic stability information, S-methyl 51 and 5-thio-1-methyl-4-nitroimidazolyl 73 prodrugs were administered orally in male C57BL/6 mice via gavage 50 mg/kg or 20 mg/kg, respectively. […] The AUCs of 14 were 523,200 mg-h/L and 317,600 mg-h/L in 50 mg/kg and 20 mg/kg doses, respectively. Compound 14 was further metabolized by glucuronidation. […] The presence of the 9-F group impeded the hydroxylation, compared to the PK studies in Alverez et al. (J. Med. Chem. 63, 14087-14117 (2020)).

[20] = rat, microsomes

T1 sequence (P53350 326-603): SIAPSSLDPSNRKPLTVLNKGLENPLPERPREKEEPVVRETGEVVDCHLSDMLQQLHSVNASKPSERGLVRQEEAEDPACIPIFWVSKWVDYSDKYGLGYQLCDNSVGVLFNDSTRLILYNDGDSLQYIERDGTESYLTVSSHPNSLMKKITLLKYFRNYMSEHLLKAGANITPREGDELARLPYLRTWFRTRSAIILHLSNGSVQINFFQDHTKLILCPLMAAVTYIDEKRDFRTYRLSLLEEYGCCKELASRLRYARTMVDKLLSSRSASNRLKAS
Sequence of PBD of Plk3 (Q9H4B4 335-646): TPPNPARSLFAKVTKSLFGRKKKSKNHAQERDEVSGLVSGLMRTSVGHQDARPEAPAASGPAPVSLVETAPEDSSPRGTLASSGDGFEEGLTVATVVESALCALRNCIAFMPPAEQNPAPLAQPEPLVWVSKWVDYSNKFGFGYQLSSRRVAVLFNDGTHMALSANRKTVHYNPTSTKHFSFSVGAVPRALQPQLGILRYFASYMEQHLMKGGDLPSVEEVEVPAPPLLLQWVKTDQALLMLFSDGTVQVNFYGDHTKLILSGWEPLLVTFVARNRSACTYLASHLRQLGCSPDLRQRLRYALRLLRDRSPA
Sequence of PBD of Plk2 (Q9NYY3 355-685): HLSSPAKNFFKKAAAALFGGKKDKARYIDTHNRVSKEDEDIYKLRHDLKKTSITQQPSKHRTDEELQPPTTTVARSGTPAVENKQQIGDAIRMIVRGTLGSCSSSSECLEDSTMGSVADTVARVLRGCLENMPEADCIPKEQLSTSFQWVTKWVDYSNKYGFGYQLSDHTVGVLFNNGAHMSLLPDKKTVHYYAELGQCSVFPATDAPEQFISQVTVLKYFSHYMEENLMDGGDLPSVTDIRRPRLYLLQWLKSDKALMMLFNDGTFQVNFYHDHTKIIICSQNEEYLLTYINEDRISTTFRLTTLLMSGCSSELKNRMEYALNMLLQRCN
Sequence of full-length human Plk1 (P53350 whole entry): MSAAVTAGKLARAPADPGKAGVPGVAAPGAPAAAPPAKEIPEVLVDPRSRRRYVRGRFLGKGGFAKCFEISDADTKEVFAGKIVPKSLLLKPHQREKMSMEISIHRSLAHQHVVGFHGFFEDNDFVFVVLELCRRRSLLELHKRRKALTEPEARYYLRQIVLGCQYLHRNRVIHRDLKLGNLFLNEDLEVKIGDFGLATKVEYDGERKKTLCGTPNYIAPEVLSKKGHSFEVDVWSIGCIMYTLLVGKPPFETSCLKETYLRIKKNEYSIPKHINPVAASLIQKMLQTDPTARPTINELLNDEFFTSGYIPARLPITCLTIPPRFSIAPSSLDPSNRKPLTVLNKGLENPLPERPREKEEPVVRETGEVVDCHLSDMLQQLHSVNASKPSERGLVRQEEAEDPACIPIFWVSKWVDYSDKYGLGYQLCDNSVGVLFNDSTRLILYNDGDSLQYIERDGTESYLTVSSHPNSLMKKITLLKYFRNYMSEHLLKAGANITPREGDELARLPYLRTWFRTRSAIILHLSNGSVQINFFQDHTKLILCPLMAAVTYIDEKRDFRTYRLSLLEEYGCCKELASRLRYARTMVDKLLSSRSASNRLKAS

Papp [1]: 27.6 ×10⁻⁶ cm/s
Compound: Cc1noc(C)c1C=CC(=O)NCCCn1c(=O)c2cc(F)ccc2n2c(=S)[nH]nc12 [compound 121, 3-(3,5-dimethylisoxazol-4-yl)-N-(3-(7-fluoro-5-oxo-1-thioxo-1,2-dihydro-[1,2,4]triazolo[4,3-a]quinazolin-4(5H)-yl)propyl)propenamide]

Compound: CSc1nnc2n(CCc3ccccc3)c(=O)c3ccccc3n12 [Example 6, 1-(methylthio)-4-phenethyl-[1,2,4]triazolo[4,3-a]quinazolin-5(4H)-one]
concentration required to induce mitotic arrest and affect proliferation [2]: > 100 µM

PAMPA: 46.0 ×10⁻⁶ cm/s | solubility [5]: moderate to good solubility | Solub. [5]: 16.2 µg/mL | t1/2 (min, RLM) [6]: >30 min
Compound: O=c1c2cc(F)ccc2n2c(=S)[nH]nc2n1CC1CC1 [compound 79]
inhibition of Plk2 PBD, FP assay [3]: failed to exhibit any detectable level of inhibition | inhibition of Plk3 PBD, FP assay [4]: failed to exhibit any detectable level of inhibition

Compound: CNc1ccc(C(=O)NCCn2cc(C=C3C(=O)NC(=O)NC3=O)c(-c3ccccc3)n2)cc1 [KBJK557]
cross-reactivity among Plk1-3 PBDs [7]: considerable cross-reactivities among Plk1-3 PBDs

activity in FP-based assay [8]: no detectable activity
Compound: PLHST [6b]

Compound: CCCn1c(=O)c2ccccc2n2c(SC)nnc12 [compound 143, 1-(methylthio)-4-propyl-[1,2,4]triazolo[4,3-a]quinazolin-5(4H)-one]
IC50 [9]: > 50 µM | spindle bipolarity [10]: significantly compromised | inhibition at 100 µM ([10]; read-out: inhibition of Plk1 localization to centrosomes): ~20% | inhibition at 100 µM ([10]; read-out: inhibition of Plk1 localization to kinetochores): ~50% | half-life [11]: 16.8 min | half-life [12]: 3.77 min | half-life [13]: 9.41 min | half-life [14]: > 120 min | half-life [15]: > 120 min | half-life [16]: > 120 min | half-life at 20 µM [17]: 11.4 ± 3.49 min | half-life ([18]; male, C57BL/6, mouse, serum, ip, 20 mg/kg, in vivo, intraperitoneal, read-out: t1/2 in vivo): 28.7 ± 8.3 min | metabolites in serum ([18]; ≥15 min post-injection): both the hydroxylated and demethylated products were detected in the serum

sensitivity of conversion to 14 to ketoconazole (CYP3A inhibitor) [19]: refractory to ketoconazole treatment | PAMPA: 18.0 ×10⁻⁶ cm/s | Solub. [5]: >50 µg/mL | t1/2 (min, RLM) [6]: >30 min
Compound: CC(=O)NCCCn1c(=O)c2cc(F)ccc2n2c(=S)[nH]nc12 [compound 73]

t1/2 (min, RLM) [20]: >30 min
Compound: 7-fluoro-4-(2-(piperidin-1-yl)ethyl)-1-thioxo-2,4-dihydro-[1,2,4]triazolo[4,3-a]quinazolin-5(1H)-one [Example 49]

Source: patent US20230365568A1, “PLK1 POLO BOX DOMAIN INHIBITORS AND METHOD OF TREATING CANCER” (The United States of America,as represented by the …, priority 2020, published 2023)
